Laboratory results as given in the supplement of paper PMC11451515.

Tests used:
Conditions in all cases: 48 h
[1] = tested on: SEM cells; test: AUC of viability dose-response curve (% viability x log10 dose units); higher = less sensitive
How it was run: (§1)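 Leukemia cells adapted to each medium (500 or 1000 cells/well, 1536-well plates) were exposed to library compounds in DMSO for 48 h at 37°C at 11 threefold doses, 47 μM to 0.79 nM. Luminescence by CellTiter-Glo One was normalised per plate to DMSO and cell-free wells, then fitted with a four-parameter log-logistic curve on log10 dose. Curves above full viability were scaled and quality-control failures removed before area under the curve was integrated by trapezoidal rule.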

[2] = tested on: P12-Ichikawa; test: as above
How it was run: as §1

[3] = tested on: NOMO1; test: as above
How it was run: as §1

[4] = tested on: SEM cells; test: cell viability relative to DMSO control; higher = less cytotoxic
How it was run: (§2)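 Viability was expressed as a per-plate percentage of DMSO wells, with cell-free wells as background. Leukemia cells (NOMO1 or SEM at 500 cells/well, P12-Ichikawa at 1000 cells/well) were adapted for at least four passages in each medium and seeded in 1536-well plates (5 μl). Library compounds in DMSO were pin-dosed over an 11-point threefold series from 47 μM to 0.79 nM, and CellTiter-Glo One luminescence was read after 48 h at 37°C.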

[5] = tested on: P12-Ichikawa; test: as above
How it was run: as §2

[6] = tested on: NOMO1; test: as above
How it was run: as §2

C[C@H]1C[C@H]2[C@@H]3CCC4=CC(=O)C=C[C@]4(C)[C@@]3(F)[C@@H](O)C[C@]2(C)[C@@]1(O)C(=O)CO
AUC of viability dose-response curve
Conditions	[1]	[2]	[3]
HPLM + 10% dialyzed FBS	358	362	429
RPMI 5 mM glucose + 10% FBS	338	322	470
RPMI 5 mM glucose + 10% dialyzed FBS	305	303	459

cell viability [%]
Conditions	[4]	[5]	[6]
HPLM + 10% dialyzed FBS, 0.000781 µM	86.1	114	–
HPLM + 10% dialyzed FBS, 0.00234 µM	105	119	–
HPLM + 10% dialyzed FBS, 0.00702 µM	101	118	–
HPLM + 10% dialyzed FBS, 0.0211 µM	92.8	109	–
HPLM + 10% dialyzed FBS, 0.0632 µM	99.5	98.1	–
HPLM + 10% dialyzed FBS, 0.19 µM	78.5	78.3	–
HPLM + 10% dialyzed FBS, 0.569 µM	68.9	73.9	–
HPLM + 10% dialyzed FBS, 1.71 µM	27.5	71.9	–
HPLM + 10% dialyzed FBS, 5.12 µM	67.1	71	–
HPLM + 10% dialyzed FBS, 15.4 µM	31.3	65.5	–
HPLM + 10% dialyzed FBS, 46.1 µM	66	65.8	–
RPMI 5 mM glucose + 10% FBS, 0.000781 µM	101	121	120
RPMI 5 mM glucose + 10% FBS, 0.00234 µM	110	126	122
RPMI 5 mM glucose + 10% FBS, 0.00702 µM	106	116	128
RPMI 5 mM glucose + 10% FBS, 0.0211 µM	105	108	122
RPMI 5 mM glucose + 10% FBS, 0.0632 µM	91.6	99.8	123
RPMI 5 mM glucose + 10% FBS, 0.19 µM	67.3	73.1	133
RPMI 5 mM glucose + 10% FBS, 0.569 µM	66.7	65.1	131
RPMI 5 mM glucose + 10% FBS, 1.71 µM	26.4	60.1	135
RPMI 5 mM glucose + 10% FBS, 5.12 µM	69.6	51.7	120
RPMI 5 mM glucose + 10% FBS, 15.4 µM	22.8	55.6	120
RPMI 5 mM glucose + 10% FBS, 46.1 µM	64.4	43.5	106
RPMI 5 mM glucose + 10% dialyzed FBS, 0.000781 µM	108	110	–
RPMI 5 mM glucose + 10% dialyzed FBS, 0.00234 µM	140	119	–
RPMI 5 mM glucose + 10% dialyzed FBS, 0.00702 µM	114	116	–
RPMI 5 mM glucose + 10% dialyzed FBS, 0.0211 µM	93.6	101	–
RPMI 5 mM glucose + 10% dialyzed FBS, 0.0632 µM	87.1	81.1	–
RPMI 5 mM glucose + 10% dialyzed FBS, 0.19 µM	72.6	59.9	–
RPMI 5 mM glucose + 10% dialyzed FBS, 0.569 µM	72.3	56	–
RPMI 5 mM glucose + 10% dialyzed FBS, 1.71 µM	24	48.2	–
RPMI 5 mM glucose + 10% dialyzed FBS, 5.12 µM	53.2	46	–
RPMI 5 mM glucose + 10% dialyzed FBS, 15.4 µM	23.9	41.5	–
RPMI 5 mM glucose + 10% dialyzed FBS, 46.1 µM	74	42.5	–

NC(=O)c1ncn([C@@H]2O[C@H](CO)[C@@H](O)[C@H]2O)n1
AUC of viability dose-response curve
Conditions	[1]	[2]	[3]
HPLM + 10% dialyzed FBS	471	447	354
RPMI 5 mM glucose + 10% FBS	453	424	403
RPMI 5 mM glucose + 10% dialyzed FBS	471	423	380

cell viability [%]
Conditions	[4]	[5]	[6]
HPLM + 10% dialyzed FBS, 0.000781 µM	96.4	122	116
HPLM + 10% dialyzed FBS, 0.00234 µM	110	120	134
HPLM + 10% dialyzed FBS, 0.00702 µM	116	102	110
HPLM + 10% dialyzed FBS, 0.0211 µM	119	109	117
HPLM + 10% dialyzed FBS, 0.0632 µM	104	110	112
HPLM + 10% dialyzed FBS, 0.19 µM	106	118	103
HPLM + 10% dialyzed FBS, 0.569 µM	101	116	88
HPLM + 10% dialyzed FBS, 1.71 µM	106	111	69.2
HPLM + 10% dialyzed FBS, 5.12 µM	117	96.3	55.4
HPLM + 10% dialyzed FBS, 15.4 µM	117	82	56.8
HPLM + 10% dialyzed FBS, 46.1 µM	80.4	76.1	29.6
RPMI 5 mM glucose + 10% FBS, 0.000781 µM	105	116	104
RPMI 5 mM glucose + 10% FBS, 0.00234 µM	115	121	129
RPMI 5 mM glucose + 10% FBS, 0.00702 µM	118	115	115
RPMI 5 mM glucose + 10% FBS, 0.0211 µM	115	123	108
RPMI 5 mM glucose + 10% FBS, 0.0632 µM	112	122	113
RPMI 5 mM glucose + 10% FBS, 0.19 µM	115	103	110
RPMI 5 mM glucose + 10% FBS, 0.569 µM	95.2	112	102
RPMI 5 mM glucose + 10% FBS, 1.71 µM	95.9	104	85.4
RPMI 5 mM glucose + 10% FBS, 5.12 µM	103	88.3	76.7
RPMI 5 mM glucose + 10% FBS, 15.4 µM	123	79.4	74.5
RPMI 5 mM glucose + 10% FBS, 46.1 µM	76.9	62.8	36.7
RPMI 5 mM glucose + 10% dialyzed FBS, 0.000781 µM	106	115	124
RPMI 5 mM glucose + 10% dialyzed FBS, 0.00234 µM	118	107	110
RPMI 5 mM glucose + 10% dialyzed FBS, 0.00702 µM	121	123	116
RPMI 5 mM glucose + 10% dialyzed FBS, 0.0211 µM	110	115	115
RPMI 5 mM glucose + 10% dialyzed FBS, 0.0632 µM	113	120	114
RPMI 5 mM glucose + 10% dialyzed FBS, 0.19 µM	108	100	104
RPMI 5 mM glucose + 10% dialyzed FBS, 0.569 µM	104	106	89.4
RPMI 5 mM glucose + 10% dialyzed FBS, 1.71 µM	118	105	69.3
RPMI 5 mM glucose + 10% dialyzed FBS, 5.12 µM	111	82.4	58.2
RPMI 5 mM glucose + 10% dialyzed FBS, 15.4 µM	142	69.3	68.2
RPMI 5 mM glucose + 10% dialyzed FBS, 46.1 µM	85.7	62.5	48.9

C[S+](=O)([O-])N(Cc1ccco1)CC(O)Cn1c2ccccc2c2ccccc21 (configuration not stated)
AUC of viability dose-response curve
Conditions	[1]	[2]	[3]
HPLM + 10% dialyzed FBS	407	436	421
RPMI 5 mM glucose + 10% FBS	396	414	415
RPMI 5 mM glucose + 10% dialyzed FBS	381	409	417

cell viability [%]
Conditions	[4]	[5]	[6]
HPLM + 10% dialyzed FBS, 0.000781 µM	106	94.2	95.3
HPLM + 10% dialyzed FBS, 0.00234 µM	88.5	88.9	99
HPLM + 10% dialyzed FBS, 0.00702 µM	100	94.2	102
HPLM + 10% dialyzed FBS, 0.0211 µM	100	99.9	105
HPLM + 10% dialyzed FBS, 0.0632 µM	99.5	96.3	86.5
HPLM + 10% dialyzed FBS, 0.19 µM	98	98.8	91.2
HPLM + 10% dialyzed FBS, 0.569 µM	92.8	94.8	93.9
HPLM + 10% dialyzed FBS, 1.71 µM	97.6	89.8	82.8
HPLM + 10% dialyzed FBS, 5.12 µM	55.4	89.3	83.6
HPLM + 10% dialyzed FBS, 15.4 µM	56.5	85.8	73.6
HPLM + 10% dialyzed FBS, 46.1 µM	18.5	56.6	35.2
RPMI 5 mM glucose + 10% FBS, 0.000781 µM	115	92	88.4
RPMI 5 mM glucose + 10% FBS, 0.00234 µM	113	94	91.6
RPMI 5 mM glucose + 10% FBS, 0.00702 µM	127	92	91.4
RPMI 5 mM glucose + 10% FBS, 0.0211 µM	119	89.2	92.2
RPMI 5 mM glucose + 10% FBS, 0.0632 µM	122	97.7	94.3
RPMI 5 mM glucose + 10% FBS, 0.19 µM	116	99.2	94
RPMI 5 mM glucose + 10% FBS, 0.569 µM	106	91.9	90
RPMI 5 mM glucose + 10% FBS, 1.71 µM	109	83.6	80.7
RPMI 5 mM glucose + 10% FBS, 5.12 µM	63.3	76.4	79.6
RPMI 5 mM glucose + 10% FBS, 15.4 µM	59.1	79.2	86.3
RPMI 5 mM glucose + 10% FBS, 46.1 µM	10.7	42.1	52.8
RPMI 5 mM glucose + 10% dialyzed FBS, 0.000781 µM	91.8	86	97.9
RPMI 5 mM glucose + 10% dialyzed FBS, 0.00234 µM	99.5	90.7	89.2
RPMI 5 mM glucose + 10% dialyzed FBS, 0.00702 µM	108	97	93.3
RPMI 5 mM glucose + 10% dialyzed FBS, 0.0211 µM	96.7	97.1	90.3
RPMI 5 mM glucose + 10% dialyzed FBS, 0.0632 µM	102	94.4	93.3
RPMI 5 mM glucose + 10% dialyzed FBS, 0.19 µM	106	87.1	90.1
RPMI 5 mM glucose + 10% dialyzed FBS, 0.569 µM	91	81.3	97.8
RPMI 5 mM glucose + 10% dialyzed FBS, 1.71 µM	78.4	88.8	85.1
RPMI 5 mM glucose + 10% dialyzed FBS, 5.12 µM	46.3	85.7	80.8
RPMI 5 mM glucose + 10% dialyzed FBS, 15.4 µM	35.9	73.4	77.9
RPMI 5 mM glucose + 10% dialyzed FBS, 46.1 µM	8.62	41.7	50.8
